Test results from PMC4774911, “Biochemical Screening of Five Protein Kinases from Plasmodium falciparum against 14,000 Cell-Active Compounds” (PLoS ONE, 2016).
pKd: −log10 of the molar value. Values joined by “and” are separate entries in the source; they are usually repeats but may differ in a detail not shown here. Equal entries are not always repeated.

Experiments:
Test in all cases: biochemical
Design in all cases: endogenous in cells; host or cells: K562 cell extract; species or system K562 (extract); replicate k of n = 2 (each experiment ID is one independent experiment; two experiment IDs per compound)
Conditions in all cases: read-out: KDapp
STK17A = biological target: T1, STK17A (Homo sapiens, UniProt Q9UEE5)
T1 sequence (Q9UEE5 1-414): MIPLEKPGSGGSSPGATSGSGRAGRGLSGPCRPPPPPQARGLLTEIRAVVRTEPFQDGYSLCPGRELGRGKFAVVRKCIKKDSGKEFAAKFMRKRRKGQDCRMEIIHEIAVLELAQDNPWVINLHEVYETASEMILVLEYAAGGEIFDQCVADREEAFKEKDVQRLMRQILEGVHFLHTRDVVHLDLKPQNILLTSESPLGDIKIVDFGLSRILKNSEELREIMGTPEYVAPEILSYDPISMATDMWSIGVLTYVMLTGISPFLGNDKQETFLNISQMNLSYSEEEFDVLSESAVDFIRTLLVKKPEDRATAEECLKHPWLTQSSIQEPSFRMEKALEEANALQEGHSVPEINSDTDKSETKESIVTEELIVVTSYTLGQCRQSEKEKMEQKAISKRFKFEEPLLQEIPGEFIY

EPHB4 = biological target: T2, EPHB4 (Homo sapiens, UniProt P54760)
T2 sequence (P54760 1-987): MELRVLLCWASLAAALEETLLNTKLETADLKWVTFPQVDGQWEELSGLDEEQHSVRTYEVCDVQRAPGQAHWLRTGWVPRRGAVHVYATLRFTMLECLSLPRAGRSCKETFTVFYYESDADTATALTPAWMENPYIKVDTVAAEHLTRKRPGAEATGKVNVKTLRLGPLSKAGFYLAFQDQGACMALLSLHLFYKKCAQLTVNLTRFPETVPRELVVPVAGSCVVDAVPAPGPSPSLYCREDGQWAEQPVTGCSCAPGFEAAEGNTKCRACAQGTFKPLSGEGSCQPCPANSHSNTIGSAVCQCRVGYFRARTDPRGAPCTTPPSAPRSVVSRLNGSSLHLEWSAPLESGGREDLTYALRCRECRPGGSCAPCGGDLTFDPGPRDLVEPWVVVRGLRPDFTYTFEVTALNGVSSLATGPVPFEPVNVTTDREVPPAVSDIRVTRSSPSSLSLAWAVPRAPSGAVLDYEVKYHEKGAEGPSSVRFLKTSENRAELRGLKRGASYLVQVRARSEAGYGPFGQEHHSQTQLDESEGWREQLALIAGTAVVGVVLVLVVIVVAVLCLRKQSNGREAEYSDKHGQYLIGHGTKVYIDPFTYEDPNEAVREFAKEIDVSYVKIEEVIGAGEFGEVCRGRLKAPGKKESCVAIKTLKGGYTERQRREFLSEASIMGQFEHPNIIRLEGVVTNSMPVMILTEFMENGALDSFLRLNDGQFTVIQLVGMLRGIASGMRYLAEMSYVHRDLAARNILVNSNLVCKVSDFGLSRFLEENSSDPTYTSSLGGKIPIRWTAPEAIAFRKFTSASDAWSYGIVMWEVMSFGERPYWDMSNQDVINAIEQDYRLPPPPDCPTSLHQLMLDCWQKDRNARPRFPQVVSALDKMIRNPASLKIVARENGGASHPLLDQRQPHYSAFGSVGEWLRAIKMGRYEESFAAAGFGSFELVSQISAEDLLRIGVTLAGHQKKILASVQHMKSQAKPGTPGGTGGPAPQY

CLK1 = CLK1 (Homo sapiens, UniProt P49759)
Sequence of CLK1 (P49759 whole entry): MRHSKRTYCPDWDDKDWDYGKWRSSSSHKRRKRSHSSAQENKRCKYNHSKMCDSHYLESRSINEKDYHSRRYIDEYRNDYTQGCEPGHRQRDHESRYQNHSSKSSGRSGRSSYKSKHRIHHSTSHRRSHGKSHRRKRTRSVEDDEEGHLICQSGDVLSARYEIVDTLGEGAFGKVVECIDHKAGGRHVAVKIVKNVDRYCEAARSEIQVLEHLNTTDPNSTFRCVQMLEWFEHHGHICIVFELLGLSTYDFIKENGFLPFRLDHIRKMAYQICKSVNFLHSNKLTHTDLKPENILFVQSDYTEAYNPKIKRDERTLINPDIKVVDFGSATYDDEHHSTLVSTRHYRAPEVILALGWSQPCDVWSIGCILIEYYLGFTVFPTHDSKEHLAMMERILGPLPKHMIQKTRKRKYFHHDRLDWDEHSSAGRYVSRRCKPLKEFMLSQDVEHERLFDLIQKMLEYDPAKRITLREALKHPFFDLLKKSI

ZAK = ZAK (Homo sapiens, UniProt Q9NYL2)
Sequence of ZAK (Q9NYL2 whole entry): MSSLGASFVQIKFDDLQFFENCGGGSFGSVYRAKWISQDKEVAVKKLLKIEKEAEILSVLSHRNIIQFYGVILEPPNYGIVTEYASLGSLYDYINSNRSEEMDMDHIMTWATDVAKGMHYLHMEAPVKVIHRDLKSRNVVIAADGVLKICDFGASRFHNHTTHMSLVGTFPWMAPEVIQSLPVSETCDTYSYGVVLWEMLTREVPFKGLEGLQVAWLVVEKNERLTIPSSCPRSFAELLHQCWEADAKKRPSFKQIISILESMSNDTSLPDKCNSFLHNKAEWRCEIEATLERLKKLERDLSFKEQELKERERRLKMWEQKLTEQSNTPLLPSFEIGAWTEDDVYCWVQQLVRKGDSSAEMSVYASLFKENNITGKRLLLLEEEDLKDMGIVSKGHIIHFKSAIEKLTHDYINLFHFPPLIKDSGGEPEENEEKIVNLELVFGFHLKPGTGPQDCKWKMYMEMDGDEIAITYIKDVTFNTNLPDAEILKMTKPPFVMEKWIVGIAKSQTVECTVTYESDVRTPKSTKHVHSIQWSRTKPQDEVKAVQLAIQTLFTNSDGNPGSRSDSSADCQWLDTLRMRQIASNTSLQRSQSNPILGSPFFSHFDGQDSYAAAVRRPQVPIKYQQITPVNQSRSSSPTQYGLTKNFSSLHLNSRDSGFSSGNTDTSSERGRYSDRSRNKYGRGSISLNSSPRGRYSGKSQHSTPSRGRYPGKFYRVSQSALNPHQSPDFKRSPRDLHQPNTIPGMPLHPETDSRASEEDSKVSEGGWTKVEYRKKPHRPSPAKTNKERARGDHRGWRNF

For CN1CCN(c2ccc(Nc3ncc(C#N)c(Nc4ccccc4C(N)=O)n3)cc2)CC1.Cl [TCMDC-134116], the pKd (STK17A) was 6.96, the pKd (EPHB4) was 5.68 and the pKd (CLK1) was 7.68. The pKd (ZAK) was 6.17.

In the case of Cl.NCC1(c2nc(-c3ccc(Cl)c(O)c3)c(-c3ccncc3)[nH]2)CCCCC1 [TCMDC-141154], the pKd (EPHB4) was 5.59 and the pKd (ZAK) was 5.21 and 5.44.

With CN(C)CC(O)COc1ccc(Nc2ncc([N+](=O)[O-])c(Nc3ccccc3O)n2)cc1.O=C(O)C(F)(F)F (centres unmarked) [TCMDC-141399] the pKd (STK17A) was 5.59 and the pKd (CLK1) was 6.77 and 6.93.
